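Compound exposure: 48 hours, 5 concentrations, 96-well plates. GI50 is the concentration that inhibits growth by half. At the TGI there is no net growth.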
Assays:
Experiment in all cases: DTP human tumour cell line panel, 48 h
UACC-257 melanoma = test system: UACC-257 melanoma
MDA-MB-231 breast = test system: MDA-MB-231 breast
MCF7 breast = test system: MCF7 breast
OVCAR-5 ovarian = test system: OVCAR-5 ovarian
SF-295 CNS = test system: SF-295 CNS
SR leukemia = test system: SR leukemia
LOX IMVI melanoma = test system: LOX IMVI melanoma
NCI-H522 lung = test system: NCI-H522 lung
SN12C renal = test system: SN12C renal
HOP-62 NSCLC = test system: HOP-62 NSCLC
DU-145 prostate = test system: DU-145 prostate
SK-MEL-28 melanoma = test system: SK-MEL-28 melanoma
OVCAR-8 ovarian = test system: OVCAR-8 ovarian
SK-OV-3 ovarian = test system: SK-OV-3 ovarian
SF-539 CNS = test system: SF-539 CNS
HCC-2998 colon = test system: HCC-2998 colon
PC-3 prostate = test system: PC-3 prostate
NCI/ADR-RES ovarian = test system: NCI/ADR-RES ovarian
OVCAR-3 ovarian = test system: OVCAR-3 ovarian
A498 renal = test system: A498 renal
MDA-MB-435 = test system: MDA-MB-435
SF-268 CNS = test system: SF-268 CNS
TK-10 renal = test system: TK-10 renal
BT-549 breast = test system: BT-549 breast
SW-620 colon = test system: SW-620 colon
ACHN renal = test system: ACHN renal
HS 578T breast = test system: HS 578T breast
M14 melanoma = test system: M14 melanoma

Q: Which results are given for `CCN(Cc1cccnc1)c1ccc(CO)c(Cl)c1`?
A: GI50 (UACC-257 melanoma): 0.195 µM; TGI (UACC-257 melanoma): 0.621 µM; GI50 (MDA-MB-231 breast): > 95.8 µM; TGI (MDA-MB-231 breast): > 100 µM; GI50 (MCF7 breast): 0.459 µM; TGI (MCF7 breast): > 100 µM; GI50 (OVCAR-5 ovarian): 0.244 µM; TGI (OVCAR-5 ovarian): 0.915 µM; GI50 (SF-295 CNS): 1.06 µM; TGI (SF-295 CNS): > 100 µM; GI50 (SR leukemia): > 100 µM; TGI (SR leukemia): > 100 µM; GI50 (LOX IMVI melanoma): > 100 µM; TGI (LOX IMVI melanoma): > 100 µM; GI50 (NCI-H522 lung): > 100 µM; TGI (NCI-H522 lung): > 100 µM; GI50 (SN12C renal): > 87.5 µM; TGI (SN12C renal): > 100 µM; GI50 (HOP-62 NSCLC): 7.3 µM; TGI (HOP-62 NSCLC): > 100 µM; GI50 (DU-145 prostate): > 81.3 µM; TGI (DU-145 prostate): > 100 µM; GI50 (SK-MEL-28 melanoma): > 100 µM; TGI (SK-MEL-28 melanoma): > 100 µM; GI50 (OVCAR-8 ovarian): 34.9 µM; TGI (OVCAR-8 ovarian): > 100 µM; GI50 (SK-OV-3 ovarian): 23.5 µM; TGI (SK-OV-3 ovarian): > 100 µM; GI50 (SF-539 CNS): > 100 µM; TGI (SF-539 CNS): > 100 µM; GI50 (HCC-2998 colon): 10.4 µM; TGI (HCC-2998 colon): > 100 µM; GI50 (PC-3 prostate): 58.4 µM; TGI (PC-3 prostate): > 100 µM; GI50 (NCI/ADR-RES ovarian): 36.5 µM; TGI (NCI/ADR-RES ovarian): > 100 µM; GI50 (OVCAR-3 ovarian): 1.13 µM; TGI (OVCAR-3 ovarian): 5.36 µM; GI50 (A498 renal): 0.0797 µM; TGI (A498 renal): 0.236 µM; GI50 (MDA-MB-435): > 100 µM; TGI (MDA-MB-435): > 100 µM; GI50 (SF-268 CNS): > 100 µM; TGI (SF-268 CNS): > 100 µM; GI50 (TK-10 renal): 0.12 µM; TGI (TK-10 renal): 0.333 µM; GI50 (BT-549 breast): > 94.3 µM; TGI (BT-549 breast): > 100 µM; GI50 (SW-620 colon): 3.66 µM; TGI (SW-620 colon): > 100 µM; GI50 (ACHN renal): 97.7 µM; TGI (ACHN renal): > 100 µM; GI50 (HS 578T breast): > 100 µM; TGI (HS 578T breast): > 100 µM; GI50 (M14 melanoma): > 100 µM; TGI (M14 melanoma): > 100 µM
